Results published in patent US20250195483A1, “SPIRO PIPERIDINE DERIVATIVES AS INHIBITORS OF APOL1 AND METHODS OF USING SAME” (Vertex Pharmaceuticals Incorporated, priority 2022, published 2025).

Molecular target: T1, APOL1 (Homo sapiens, UniProt O14791)
T1 sequence (O14791 1-398): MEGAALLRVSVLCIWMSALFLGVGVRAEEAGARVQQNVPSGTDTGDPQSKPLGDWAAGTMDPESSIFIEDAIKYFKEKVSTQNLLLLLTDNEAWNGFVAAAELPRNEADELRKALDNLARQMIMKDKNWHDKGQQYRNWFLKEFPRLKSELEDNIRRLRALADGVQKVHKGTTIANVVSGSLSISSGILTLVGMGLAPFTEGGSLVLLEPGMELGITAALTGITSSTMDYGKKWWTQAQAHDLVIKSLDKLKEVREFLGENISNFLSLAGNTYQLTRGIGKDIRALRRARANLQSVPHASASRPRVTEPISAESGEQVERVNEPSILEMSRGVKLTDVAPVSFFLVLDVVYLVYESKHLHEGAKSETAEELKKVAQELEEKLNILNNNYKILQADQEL
Experiment: MultiTox-Fluor Multiplex Cytotoxicity Assay, tet-inducible APOL1 T-REx-HEK293 cells (G0, G1 or G2 clone not specified for Table 20)
Type: cell-based
Conditions: tet-induced, 24 hours with compound, ratio of dead to live cells, read-out: IP50 (i.e., IC50 for cell proliferation)
Description: Human embryonic kidney (HEK293) cell lines containing a tet-inducible expression system (T-REx™; Invitrogen, Carlsbad, CA) and Adeno-associated virus site 1 pAAVS1-Puro-APOL1 G0 or pAAVS1-Puro-APOL1 G1 or pAAVS1-Puro-APOL1 G2 Clones G0 DC2.13, G1 DC3.25, and G2 DC4.44 were grown in a T-225 flask at ˜90% confluency in cell growth media (DMEM, 10% Tet-free FBS, 2 mM L-glutamine, 100 Units/mL penicillin-streptomycin, 5 μg/mL blasticidin S HCl, 1 μg/mL puromycin dihydrochloride). Cells were washed with DPBS and then trypsinized to dissociate from the flask. Media was used to quench the trypsin, cells were then pelleted at 200 g and resuspended in fresh cell assay media (DMEM, 2% Tet-free FBS, 2 mM L-glutamine, 100 Units/mL penicillin-streptomycin). Cells were counted and diluted to 1.17×10^6 cells/mL. 20 μL of cells (23,400/well) were dispensed in every well of a 384-well Poly-D-Lysine coated plate using the Multidrop dispenser. The plates were then incubated at room temperature for one hour.
Tetracycline is needed to induce APOL1 expression. 1 mg/mL tet stock in water was diluted to 250 ng/mL (5×) in cell assay media. 60 μL of cell assay media (no tet control) was dispensed in columns 1 and 24, and 60 μL of 5× tet in 384-PP-round bottom plate was dispensed in columns 2 to 23 with the Multidrop dispenser.
Assay ready plates from the Global Compound Archive were ordered using template 384_APOL1Cell_DR10n2_50 uM_v3. Compounds were dispensed at 200 nL in DMSO. The final top concentration was 10 μM with a 10 point 3-fold dilution in duplicate in the MultiTox assay.
20 μL was transferred from the 5× tet plate to the ARP and mixed, then 5 μL of 5× tet and the compounds were transferred to the cell plate and mixed using the Bravo. The cell plate was placed in the humidified 37° C. 5% CO2 incubator for 24 hours.
The MultiTox-Fluor Multiplex Cytotoxicity Assay was performed in accordance with the manufacturer's protocol. After cells were incubated with tet and compound for 24 hours, 25 μL of 1× MultiTox reagent was added to each well using the Multidrop dispenser; the plates were placed on a plate shaker (600 rpm) for 2 minutes, then centrifuged briefly and placed back in the 37° C. incubator for 30 minutes. The cell viability (excitation: 400 nm, emission: 486 nm) and cytotoxicity (excitation: 485 nm, emission: 535 nm) were read using the EnVision plate reader. A ratio of dead (cytotoxicity) to live (viability) cells was reported. Data was exported and analyzed in Genedata. Data was normalized using percent of control, no tet (100% viability), and 50 ng/mL tet treated (0% viability), and fit using Smart Fit settings in Genedata.

In the case of `CN1C(=O)C2(CCN(Cc3cnc(NC(C)(C)CO)nc3)CC2)c2cc(Cl)ccc21` [Compound 40], the IC50 is reported as 50 to 500 nM.
In the case of `CC(CO)(CO)Cn1cc(CN2CCC3(CC2)C(=O)Nc2ccc(Cl)cc23)nn1` [Compound 41, 5-chloro-1′-[[1-[3-hydroxy-2-(hydroxymethyl)-2-methyl-propyl]triazol-4-yl]methyl]spiro[indoline-3,4′-piperidine]-2-one], the IC50 is reported as 50 to 500 nM.
For `CN1C(=O)C2(CCN(Cc3cn(CCO)nn3)CC2)c2cc(Cl)ccc21` [Compound 43], the IC50 was ≥ 500 nM.
`CN1C(=O)C2(CCN(Cc3cn(CC(C)(CO)CO)nn3)CC2)c2cc(Cl)ccc21` [Compound 44] was tested, and the IC50 was ≥ 500 nM.
For `CS(=O)(=O)CCn1cc(CN2CCC3(CC2)C(=O)N(CCO)c2ccc(Cl)cc23)cn1` [Compound 45, 5-chloro-1-(2-hydroxyethyl)-1′-[[1-(2-methylsulfonylethyl)pyrazol-4-yl]methyl]spiro[indoline-3,4′-piperidine]-2-one], the IC50 was 50 to 500 nM.
With `O=C1N(CCO)c2ccc(Cl)cc2C12CCN(Cc1cn[nH]c1)CC2` [Compound 46] the IC50 was 50 to 500 nM.
`CCN1C(=O)C2(CCN(Cc3cnn(CCS(C)(=O)=O)c3)CC2)c2cc(Cl)ccc21` [Compound 48] gave an IC50 of 50 to 500 nM.
In the case of `CS(=O)(=O)CCn1cc(CN2CCC3(CC2)C(=O)N(C2COC2)c2ccc(Cl)cc23)cn1` [Compound 49], the IC50 is reported as 50 to 500 nM.
Compound `CS(=O)(=O)CCn1cc(CN2CCC3(CC2)C(=O)N(CC(F)(F)F)c2ccc(Cl)cc23)cn1` [Compound 50] has an IC50 of 50 to 500 nM.
With `COCCN1C(=O)C2(CCN(Cc3cnn(CCS(C)(=O)=O)c3)CC2)c2cc(Cl)ccc21` [Compound 51] the IC50 was ≥ 500 nM.
`CN1C(=O)C2(CCN(Cc3cnn(CC(C)(C)O)c3)CC2)c2cc(Cl)ccc21` [Compound 52, 5-chloro-1′-[[1-(2-hydroxy-2-methyl-propyl)pyrazol-4-yl]methyl]-1-methyl-spiro[indoline-3,4′-piperidine]-2-one] was tested, and the IC50 was ≤ 50 nM.
Compound `CN1C(=O)C2(CCN(Cc3cnn(CC(O)C(F)(F)F)c3)CC2)c2cc(Cl)ccc21` (stereo not shown) [Compound 53] has an IC50 of 50 to 500 nM.
`CN1C(=O)C2(CCN(Cc3cnn(CC4(O)CCS(=O)(=O)CC4)c3)CC2)c2cc(Cl)ccc21` [Compound 54] showed an IC50 of 50 to 500 nM.
For `CN1C(=O)C2(CCN(Cc3cnn(CCO)c3)CC2)c2cc(Cl)ccc21` [Compound 55], the IC50 was ≥ 500 nM.
For `CN1C(=O)C2(CCN(C[C@H]3C[C@@H](NC(=O)c4cc(C5CC5)no4)C3)CC2)c2cc(Cl)ccc21` [Compound 60, N-[3-[(5-chloro-1-methyl-2-oxo-spiro[indoline-3,4′-piperidine]-1′-yl)methyl]cyclobutyl]-3-cyclopropyl-isoxazole-5-carboxamide], the IC50 was ≥ 500 nM.
For `CN1C(=O)C2(CCN(Cc3cnn(C[C@H]4C[C@@H](NS(=O)(=O)C5CC5)C4)c3)CC2)c2cc(Cl)ccc21` [Compound 65], the IC50 was ≥ 500 nM.
In the case of `Cc1cc(C(=O)N[C@H]2C[C@H](Cn3cc(CN4CCC5(CC4)C(=O)N(C)c4ccc(Cl)cc45)cn3)C2)on1` [Compound 70], the IC50 is reported as ≥ 500 nM.
With `CN1C(=O)C2(CCN(Cc3cnn(CCS(N)(=O)=O)c3)CC2)c2ccccc21` [Compound 72, 2-(4-((I-methyl-2-oxospiro[indoline-3,4′-piperidin]-1′-yl)methyl)-1H-pyrazol-1-yl)ethane-1-sulfonamide] the IC50 was ≥ 500 nM.
`CS(=O)(=O)CCn1cc(CN2CCC3(CC2)C(=O)N(CC(F)F)c2ccccc23)cn1` [Compound 73] was tested, and the IC50 was ≥ 500 nM.
Compound `C[C@H]1C[C@@]2(CCN1Cc1cnn(CCO)c1)C(=O)Nc1ccc(Cl)cc12` [Compound 75] has an IC50 of 50 to 500 nM.
For `C[C@H]1C[C@@]2(CCN1Cc1cnn(CC(=O)N(C)C)c1)C(=O)Nc1ccc(Cl)cc12` [Compound 76], the IC50 was ≤ 50 nM.
In the case of `C[C@H]1C[C@@]2(CCN1Cc1cnn(CCS(C)(=O)=O)c1)C(=O)N(C)c1ccc(Cl)cc12` [Compound 80, (2′S,3R)-5-chloro-1,2′-dimethyl-1′-[[1-(2-methylsulfonylethyl)pyrazol-4-yl]methyl]spiro[indoline-3,4′-piperidine]-2-one trifluoracetic acid], the IC50 is reported as ≤ 50 nM.
For `CN1C(=O)C2(CCN(Cc3cnn(CCS(C)(=O)=O)c3)CC2)c2cc(C(F)(F)F)ccc21` [Compound 83], the IC50 was ≥ 500 nM.
In the case of `CCc1ccc2c(c1)C1(CCN(Cc3cnn(CCS(C)(=O)=O)c3)CC1)C(=O)N2C` [Compound 84], the IC50 is reported as ≥ 500 nM.
With `CN1C(=O)C2(CCN(Cc3cnn(CCS(C)(=O)=O)c3)CC2)c2cc(OC(F)F)ccc21` [Compound 85] the IC50 was ≥ 500 nM.
`CS(=O)(=O)CCn1cc(CN2CCC3(CC2)C(=O)N(Cc2ccccc2)c2ccc(OC(F)F)cc23)cn1` [Compound 86] was tested, and the IC50 was ≥ 500 nM.
`CN1C(=O)C2(CCN(Cc3cnn(CCS(C)(=O)=O)c3)CC2)c2cc(OC(F)(F)F)ccc21` [Compound 87] was tested, and the IC50 was ≥ 500 nM.
`C[C@H]1C[C@@]2(CCN1Cc1cnn(CCS(C)(=O)=O)c1)OCCc1ccc(Cl)cc12` [Compound 88, (1R,2′S)-7-chloro-2′-methyl-1′-[[1-(2-methylsulfonylethyl)pyrazol-4-yl]methyl]spiro[isochromane-1,4′-piperidine]] was tested, and the IC50 was ≤ 50 nM.
In the case of `CC1COC2(CCN(Cc3cnn(C)c3)CC2)c2ccccc21` (stereo not shown) [Compound 89, 4-methyl-1′-[(1-methylpyrazol-4-yl)methyl]spiro[isochromane-1,4′-piperidine]], the IC50 is reported as ≥ 500 nM.
In the case of `Cc1ccc2c(c1)[C@]1(CCN(Cc3cnn(C)c3)[C@@H](C)C1)OCC2` [Compound 91], the IC50 is reported as ≤ 50 nM.
`Cc1ccc2c(c1)C1(CCN(Cc3cnn(C)c3)C(C)C1)OCC2` (stereo not shown) [Compound 92] was tested, and the IC50 was ≤ 50 nM.
With `Cc1ccc2c(c1)C1(CCN(Cc3cnn(C)c3)C(C)C1)OCC2` (stereo not shown) [Compound 93] the IC50 was ≤ 50 nM.
In the case of `Cc1ccc2c(c1)[C@]1(CCN(Cc3cnc(NC(C)(C)CO)nc3)[C@@H](C)C1)OCC2` [Compound 94], the IC50 is reported as ≤ 50 nM.
For `Cc1ccc2c(c1)[C@@]1(CCN(Cc3cnc(NC(C)(C)CO)nc3)[C@@H](C)C1)OCC2` [Compound 95], the IC50 was ≥ 500 nM.
`Cc1ccc2c(c1)[C@]1(CCN(Cc3cn[nH]c3)[C@@H](C)C1)OCC2` [Compound 96] was tested, and the IC50 was ≤ 50 nM.
`Cc1ccc2c(c1)C1(CCN(Cc3cn[nH]c3)[C@@H](C)C1)OCC2` (stereo partly shown) [Compound 97] was tested, and the IC50 was ≥ 500 nM.
For `Cc1ccc2c(c1)C1(CCN(Cc3cnn(CCO)c3)[C@@H](C)C1)OCC2` (stereo partly shown) [Compound 98], the IC50 was ≤ 50 nM.
With `Cc1ccc2c(c1)C1(CCN(Cc3cnn(CCO)c3)[C@@H](C)C1)OCC2` (stereo partly shown) [Compound 99] the IC50 was ≥ 500 nM.
`Cc1ccc2c(c1)[C@]1(CCN(Cc3cnn(CC(C)(CO)CO)c3)[C@@H](C)C1)OCC2` [Compound 100] was tested, and the IC50 was ≤ 50 nM.
With `Cc1ccc2c(c1)[C@@]1(CCN(Cc3cnn(CC(C)(CO)CO)c3)[C@@H](C)C1)OCC2` [Compound 101] the IC50 was 50 to 500 nM.
Work on `C[C@H]1C[C@@]2(CCN1Cc1cnn(CC(=O)N(C)C)c1)OCCc1ccc(Cl)cc12` [Compound 102] yielded an IC50 of 50 to 500 nM.
For `C[C@H]1C[C@@]2(CCN1Cc1cnn(CCO)c1)OCCc1ccc(Cl)cc12` [Compound 103], the IC50 was ≤ 50 nM.
For `C[C@H]1C[C@@]2(CCN1Cc1cn[nH]c1)OCCc1ccc(Cl)cc12` [Compound 104], the IC50 was ≤ 50 nM.
With `C[C@H]1C[C@@]2(CCN1Cc1cn(C)nn1)OCCc1ccc(Cl)cc12` [Compound 105] the IC50 was ≤ 50 nM.
With `C[C@H]1C[C@@]2(CCN1Cc1c[nH]nn1)OCCc1ccc(Cl)cc12` [Compound 106] the IC50 was ≤ 50 nM.
`C[C@H]1C[C@@]2(CCN1Cc1ccc3c(c1)n(C)c(=O)n3C)OCCc1ccc(Cl)cc12` [Compound 107] was tested, and the IC50 was ≤ 50 nM.
With `C[C@H]1C[C@@]2(CCN1Cc1cn(C)cn1)OCCc1ccc(Cl)cc12` [Compound 108] the IC50 was ≥ 500 nM.
In the case of `Cc1cc(CN2CC[C@]3(C[C@@H]2C)OCCc2ccc(Cl)cc23)[nH]n1` [Compound 109], the IC50 is reported as ≤ 50 nM.
`C[C@H]1C[C@@]2(CCN1Cc1ncc[nH]1)OCCc1ccc(Cl)cc12` [Compound 110] was tested, and the IC50 was 50 to 500 nM.
